Assay [1] has as its system H69AR. The experiment in a line: Cytotoxicity against human H69AR cells assessed as reduction in cell viability by SRB assay. The format is functional, cell-based. (In general: Sulforhodamine B stains cellular protein and so reports cell mass.)
The test system of assay [2] is K562. Description: Cytotoxicity against human K562 cells assessed as reduction in cell viability by MTT assay. The format is functional, cell-based. For orientation: Formazan colour is commonly taken as a measure of viable cells.
Assay [3] has as its system ASPC1. The experiment in a line: Cytotoxicity against human ASPC1 cells assessed as reduction in cell viability by SRB assay. In kind it is functional, cell-based.
In assay [4] the test system is MDA-MB-231. Description: Cytotoxicity against human MDA-MB-231 cells assessed as reduction in cell viability by SRB assay. The format is functional, cell-based.
Assay [5] concerns L02. Description: Cytotoxicity against human L02 cells assessed as reduction in cell viability by SRB assay. In kind it is functional, cell-based.
The test system of assay [6] is Bacillus cereus. Description: Antibacterial activity against Bacillus cereus assessed as inhibition of bacterial growth incubated for 18 to 20 hrs by agar dilution method. As to conditions: time 18-20 hrs. In kind it is functional.
The subject of assay [7] is Escherichia coli. The experiment in a line: Antibacterial activity against Escherichia coli assessed as inhibition of bacterial growth incubated for 18 to 20 hrs by agar dilution method. The format is functional. As to conditions: time 18-20 hrs. (In general: In agar dilution the substance is mixed into plates at graded concentrations.)
Assay [8] concerns Proteus. Description: Antibacterial activity against Proteus species assessed as inhibition of bacterial growth incubated for 18 to 20 hrs by agar dilution method. The format is functional. As to conditions: time 18-20 hrs.

Converted amounts (≈) assume the structure as drawn. Counter-ions that a name gives are not always drawn. Where only a bound is given, the exact number is not on record here.

These results are taken from ChEMBL document CHEMBL5137110, “Production of Multiple Talaroenamines from Penicillium malacosphaerulum via One-Pot/Two-Stage Precursor-Directed Biosynthesis” (J Nat Prod, 2022).

The IC50 is the midpoint of a concentration-inhibition curve. Take `CC1=CC(=O)[C@@](C)(O)C(=O)/C1=C\Nc1ccc(F)cc1Br`: the IC50 was greater than 30 µM in assay [1]; 2.8 µM in assay [2]; greater than 30 µM in assay [3]; greater than 30 µM in assay [4]; 20.9 µM in assay [5].

Take `CC1=CC(=O)[C@@](C)(O)C(=O)/C1=C\Nc1cccc(C(N)=O)c1`: the IC50 in assay [1] is greater than 30 µM; in assay [2] it was 2.2 µM; in assay [3], greater than 30 µM; in assay [4] it was greater than 30 µM; in assay [5] it was 17 µM.

For `COc1cccc2c1C(=O)c1c(O)c3c(c(O)c1C2=O)C[C@@](O)(C(=O)CO)C[C@@H]3O[C@H]1C[C@H](N)[C@H](O)[C@H](C)O1` [DOXORUBICIN HYDROCHLORIDE], the results for the IC50 in assay [1], in assay [4] and in assay [5] were 15.1 µM, 0.3 µM and 0.2 µM, respectively.

Take `CC1=CC(=O)[C@@](C)(O)C(=O)/C1=C\Nc1ccc(C(=O)O)cc1`: the half-maximal inhibitory concentration (IC50) in assay [1] was 9.6 µM; in assay [2] it was 8.5 µM; in assay [3], greater than 30 µM; in assay [4], greater than 30 µM; in assay [5] it was 16.1 µM.

By MIC is commonly meant the lowest concentration that inhibits growth of the organism. Consider `CC1=CC(=O)[C@@](C)(O)C(=O)/C1=C\Nc1ccc(Cl)c(Cl)c1`, for which the MIC in assay [6], in assay [7] and in assay [8] was 16.3 µg/mL (≈ 50 µM) in each case.
